Ends that are not written are not given here.
What was measured:
[1] = tested on: CXCR3 cell line transfectant; experiment: FACS analysis: blocking of anti-CXCR3 antibody binding to CXCR3 transfectant; assay type: cell-based, human
anti-CXCR3 antibody = experiment: ELISA binding of receptor-derived peptides to anti-CXCR3 antibody; parameters: species or system mouse; conditions: peptide coated on plate, antibody 0.5 μg/well, 2 hours
Description: The ability of these receptor-derived peptides to bind anti-CXCR3 antibody was evaluated using a standard ELISA format. The peptides were dissolved in 0.1 M bicarbonate buffer and coated on a 96 well ELISA plate overnight. The excess peptides were removed and nonspecific binding sites in the wells were blocked by 0.1 % bovine serum albumin. Anti-CXCR3 antibody (0.5 μg/well) was added to these wells and incubated for 2 hours. Excess antibody was removed by washing with PBS. HRP conjugated goat anti-mouse antibody was used as secondary antibody for detection. […] Further support for the conclusion that anti-CXCR3 antibody bound two of the seven receptor-derived peptides was provided by FACS analysis of the same interactions.

EAE = experiment: prevention of EAE in mice by peptide vaccination; conditions: SP4-1 with CFA s.c. at 21 and 14 days before induction of EAE with PLP 139-151, SJL mice
Description: SJL mice (6-8 weeks old) were obtained from Jackson Laboratories. They were kept in quarantine for two weeks. […] For the experiments, induction of the disease is considered Day 0.
The emulsion was taken in 1 ml syringe (needed 2 syringes) fitted with a 25 gauge needle. Each mouse was given 100 μl of the emulsin under each flank near the hind legs by subcutaneous injection (total volume per mouse=200 μl, total peptide per mouse=200 μg).
One ml of PBS and 1 ml of CFA were mixed and sonicated for 5 seconds and the emulsin is drawn into a 1 ml syringe fitted with a 25 gauge needle. Each mouse was given 100 μl of this emulsion under each flank near hind legs by subcutaneous injection (total volume of CFA per mouse=200 μl).
To an aqueous solution of peptide (4 mg per ml in PBS) equal volume of CFA was added and the mixture was sonicated for 5 seconds. The emulsion was drawn in a 1 ml syringe fitted with a 25 gauge needle and subcutaneously injected (200 μl total per mouse) in mice at the foot pad and back.

[2] = tested on: human CXCR3 SP-4-1 peptide; experiment: serum ELISA for antibody response to SP4-1 peptide in vaccinated mice; assay type: in vivo; conditions: serum of vaccinated SJL mice, bled week 0 and week 5, ELISA
Description: The mice were bled at week 0 and week 5 and serum was tested by ELISA for the presence of antibodies against the human CXCR3 SP-4-1 peptide. Briefly, the SP4-1 peptide dissolved in 0.1 M sodium bicarbonate buffer was plated on a 96-well ELISA plate overnight. The nonspecific binding sites on the plate were coated with 0.1% bovine serum albumin solution in PBS. The wells were washed and serum (diluted in PBS) was added to the wells and incubated at room temperature for 1.5 hours. The wells were then washed and HRP conjugated anti-mouse immunoglobulin antibody was used to detect the presence of anti-SP4-1 antibodies).

[3] = biological target: T1, human CXCR3 (CXCR3-NSO transfectants) (Homo sapiens, UniProt P49682); experiment: microphysiometer bioassay for CXCR3 activation (extracellular acidification rate); assay type: cell-based; conditions: 1, 5, 10 mglml ligand pumped for 10 min
T1 construct: expressed in transfected cells
T1 sequence (P49682 1-368): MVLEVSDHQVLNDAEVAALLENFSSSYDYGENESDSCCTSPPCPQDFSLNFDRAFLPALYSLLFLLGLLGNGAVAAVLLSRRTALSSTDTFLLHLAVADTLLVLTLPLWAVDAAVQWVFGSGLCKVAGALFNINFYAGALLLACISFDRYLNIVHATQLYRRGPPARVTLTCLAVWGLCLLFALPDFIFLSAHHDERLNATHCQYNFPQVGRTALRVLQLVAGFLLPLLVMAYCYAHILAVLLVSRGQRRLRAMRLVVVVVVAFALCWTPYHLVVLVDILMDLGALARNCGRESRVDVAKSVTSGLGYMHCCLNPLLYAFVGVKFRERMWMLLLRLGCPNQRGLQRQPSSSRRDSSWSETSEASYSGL
Description: (§1) 5X10^5 CXCR3-NSO transfectant cells and untransfected “BONZO-NSO” cells (negative control) were spotted in the microphysiometer chambers along with agarose and 1, 5, 10 […] anti-CXCR3 (FIG 1a) or IP-10 (FIG 1b) was pumped for 10 min. […] The arrow indicates the time that ligands were added to the cells.
A stable line transfectant of NSO-1 cells expressing the cDNA for human CXCR3 was prepared according to standard techniques. The surface expression of hu-CXCR3 on the transfectants compared to untransfected parent NSO-1 cells was confirmed by FACS staining using mouse anti-human CXCR3 monoclonal antibody (R&D systems).
(§2) To establish a bioassay for CXCR3 activation, the CXCR3 transfectant cells were cultured with either human IP-10, or the mouse anti-human CXCR3 antibody, and the physiological response of the cells was measured using a microphysiometer. This machine measures changes in the pH of the extracellular medium of the cell cultures which result from ligand receptor binding on the cell surface. These extracellular acidification rate measurements have previously been used as markers of antigen specific T cell activation and T cell epitope identification. The current assay is used to provide a biological read out for the identification of chemokine or chemokine receptor peptides involved in binding to IP- 10 or agonistic anti-CXCR3 antibody.

[4] = tested on: untransfected NSO-1 cells; experiment: microphysiometer acidification rate, untransfected negative control cells; assay type: cell-based; conditions: untransfected NSO-1 (BONZO-NSO) cells
Description: as §1, §2

DAAVQWVFGSGLCKV-NH2 [SP-2-1]
inhibition of binding of anti-CXCR3 antibody to CXCR3 transfectants [1]: failed to inhibit binding
binding to anti-CXCR3 antibody (anti-CXCR3 antibody): nonbinding

DILMDLGALARNCGRESRVDVAKS-NH2 [SP-4-1]
inhibition of binding of anti-CXCR3 antibody to CXCR3 transfectants [1]: potently blocked binding
mice showing no clinical symptoms of EAE (EAE): 7 out of 8
antibody response against SP4-1 peptide [2]: show an antibody response against this peptide
binding to anti-CXCR3 antibody (anti-CXCR3 antibody): substantial binding

PPCPQDFSLNFDRAFLPA-NH2 [SP-1-3]
inhibition of binding of anti-CXCR3 antibody to CXCR3 transfectants [1]: partial inhibition
binding to anti-CXCR3 antibody (anti-CXCR3 antibody): substantial binding

human IP-10: human chemokine IP-10, ligand of CXCR3
acidification rate changes [3]: substantial acidification rate changes
acidification rate changes [4]: no change in acidification rate
acidification rate changes ([4]; listed as IP-10): did not show any change in acidification rate changes

— US20010006942A1, “Chemokine receptor peptide vaccines for treatment and prevention of diabetes” (priority 1998, published 2001)
